The values that follow come from patent US5602134A, “Positive inotropic and lusitropic pyrroloquinolinone derivatives” (Janssen Pharmaceutica N.V., priority 1993, dated 1997).

Experiment [1] deals with T1, canine heart phosphodiesterase PDE III (Canis lupus familiaris, UniProt A0A8I3NYE0).
T1 construct: canine heart phosphodiesterase PDE III; from tissue; host or cells: canine heart
T1 sequence (A0A8I3NYE0 1-1135): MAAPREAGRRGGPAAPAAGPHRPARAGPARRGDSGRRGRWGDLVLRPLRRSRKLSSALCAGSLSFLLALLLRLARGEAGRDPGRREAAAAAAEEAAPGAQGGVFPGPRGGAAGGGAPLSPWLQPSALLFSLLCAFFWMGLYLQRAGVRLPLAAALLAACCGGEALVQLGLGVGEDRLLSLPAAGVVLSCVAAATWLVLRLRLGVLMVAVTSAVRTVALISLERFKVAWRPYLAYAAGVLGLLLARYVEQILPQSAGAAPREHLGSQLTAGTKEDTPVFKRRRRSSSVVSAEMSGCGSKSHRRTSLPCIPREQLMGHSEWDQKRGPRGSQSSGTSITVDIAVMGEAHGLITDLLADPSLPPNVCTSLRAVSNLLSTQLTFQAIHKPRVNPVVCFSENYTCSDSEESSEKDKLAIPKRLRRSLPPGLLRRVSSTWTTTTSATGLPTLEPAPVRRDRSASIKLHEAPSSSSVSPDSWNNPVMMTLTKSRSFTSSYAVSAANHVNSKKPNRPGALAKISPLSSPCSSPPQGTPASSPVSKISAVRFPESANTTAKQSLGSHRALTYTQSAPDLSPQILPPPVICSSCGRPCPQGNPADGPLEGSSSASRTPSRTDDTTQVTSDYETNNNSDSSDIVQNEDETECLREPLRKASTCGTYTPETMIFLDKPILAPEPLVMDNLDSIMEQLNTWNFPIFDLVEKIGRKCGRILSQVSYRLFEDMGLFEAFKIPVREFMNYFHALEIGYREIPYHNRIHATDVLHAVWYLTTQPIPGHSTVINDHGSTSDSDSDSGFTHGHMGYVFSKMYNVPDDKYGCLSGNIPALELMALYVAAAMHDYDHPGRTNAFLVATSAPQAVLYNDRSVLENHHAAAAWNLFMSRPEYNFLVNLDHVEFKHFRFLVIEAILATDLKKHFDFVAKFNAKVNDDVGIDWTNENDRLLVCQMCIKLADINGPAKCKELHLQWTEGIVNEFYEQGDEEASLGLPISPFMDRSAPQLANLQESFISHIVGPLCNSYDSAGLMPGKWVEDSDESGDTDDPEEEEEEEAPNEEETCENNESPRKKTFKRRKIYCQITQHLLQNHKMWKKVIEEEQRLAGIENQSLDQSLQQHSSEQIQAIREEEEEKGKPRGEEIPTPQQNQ
Briefly: Inhibition of Phosphodiesterase Type III (PDE III). The settings on record: 10 min at 37° C., pH 7.1. The format is biochemical. On the procedure: The positive inotropic and lusitropic effect of the instant compounds was assessed by an in vitro assay system to detect inhibiting effect on the phosphodiesterase type III and in an in vivo experiment in closed-chest anesthetized dogs by monitoring cardiac and haemodynamic effects of an intravenous bolus injection of the instant compounds. […] Inhibition of Phosphodiesterase Type III (PDE III) […] For every preparation,time- and concentration-dependent changes in cyclic nucleotide hydrolysis were measured. […] The enzymatic activity was started by addition of substrate and stopped 10 min later after the tubes were transferred to a waterbath at 100° C. for 40 sec. After the tubes had been cooled to room temperature, alkaline phosphatase (0.25 g/ml) was added and the mixture was left at 37° C. for 20 min. The mixture was subsequently applied to a 1-ml DEAE-Sephadex A-25 column and washed twice with 3 ml of 20 mM Tris-HCl at pH 7.4. The ^3 H-labeled reaction products in the eluate were quantified by liquid scintillation counting. The inhibiting effect of the present compounds on canine heart phosphodiesterase PDE III was measured at different concentrations of the instant compounds. The IC50 values were calculated graphically from the thus obtained inhibition values.

Another experiment has as its system Beagle dogs. The experiment can be described thus: Positive inotropy and lusitropy, blood pressure and heart rate in anaesthetized closed-chest dogs. The settings on record: Canis lupus familiaris, iv, 5 min, 5 min after i.v. administration, n = 3, relative to premedication values. In kind it is in vivo, Beagle dog. On the procedure: The positive inotropic and lusitropic effect of the instant compounds was assessed by an in vitro assay system to detect inhibiting effect on the phosphodiesterase type III and in an in vivo experiment in closed-chest anesthetized dogs by monitoring cardiac and haemodynamic effects of an intravenous bolus injection of the instant compounds.
Positive Inotropy and Lusitropy, Blood Pressure and Heart Rate in Dogs
The test compound was dissolved in an aqueous glucose solution in a concentration of 1 mg.ml^-1. The experiments were performed on 3 Beagle dogs of either sex and varying age, ranging in body weight from 11 to 18 kg (median 13 kg). The animals were intravenously anaesthetized with a mixture of 0.015 mg.kg^-1 scopolamine and 0.05 mg.kg^-1 lofentanil. The animals were intubated with a cuffed endotracheal tube. Intermittent positive pressure ventilation was performed with a mixture of pressurized air and oxygen (60/40), using a volume-controlled ventilator (Siemens Elema). In the control period the CO2 concentration in the expired air (ET CO2), as determined with a capnograph (Gould Godart), was kept at 5 vol % by adjustment of the respiratory volume (resp. rate=20 breaths.min^-1). A continuous intravenous infusion of 0.5 mg.kg^-1.h^-1 of etomidate was started immediately after induction. Body temperature was monitored with a thermistor positioned in the pulmonary artery. To prevent blood clotting heparin, 1000 IU.kg^-1i.v., was administered.
The electrocardiogram (ECG) was derived from limb leads (standard lead 2). Left ventricular (LVP) and ascending aortic blood pressure (AoP) were measured by retrograde catheterisation via the femoral arteries with high fidelity cathetertip micromanometers (Honeywell). The other femoral vein was cannulated for injection of saline at room temperature into the right atrium and for injection of the test compound. Peak ascending aortic blood flow velocity was measured through the fight carotid artery with an electomagnetic catheter-tip probe connected to a square wave electomagnetic flow meter (Janssen Scientific Instruments). The following variables--inter alia--were calculated on-line, usually at 1 rain intervals: heart rate (HR), diastolic (AoPd) aortic blood pressure, left ventricular end-diastolic pressure (LVEDP), the maximum positive and maximum negative rate of change of isovolumic LVP (LV dp/dtmax and min, respectively), the maximum positive first derivative divided by the actually developed pressure in the left ventricle (LV dp/dtmax /Pd). The time constant (T) of relaxation was measured with the use of an exponential analysis that also estimated the asymptote. After a stabilization period, the animals were treated by intravenous bolus injection of the test compound at 30 min. interval in cumulative doses of 0.0005, 0.001, 0.004, 0.016, 0.064, 0.125 and 0.25 mg/kg.

The mark [2] stands for this setting: read-out: Calculated dose producing a 15% reduction in diastolic aortic blood pressure (AoPD).
Where [3] appears, read: read-out: Calculated dose producing a 15% reduction of total systemic vascular resistance (TSR).
Setting [4] is: read-out: Calculated dose producing a 30% increase in cardiac contractility (LV dp/dt max).
Setting [5] is: read-out: Calculated dose producing a 30% increase in heart rate (HR).

One may read the IC50 as the concentration needed to halve the response being measured. Read a low IC50 as inhibition by little substance.

Molecules are shown by their SMILES. Structures can show the parent of a compound that is named as a salt. Where two headings read alike, the source gives them in different places.

Turning to `O=C1Cc2cc3cc(OCCCC(=O)N4CCN(CC5CCCCC5)CC4)ccc3nc2N1` [Compound 16, 1-(cyclohexylmethyl)-4-[4-[(2,3-dihydro-2-oxo-1H-pyrrolo[2,3-b]quinolin-6-yl)oxy]-1-oxobutyl]piperazine dihydrochloride ethanolate(1:1)], inhibition in experiment [1] was half-maximal at 27 nM (IC50).

For the molecule `O=C(O)CCCOc1ccc2nc3c(cc2c1)CC(=O)N3` [Compound 3, 4-[(2,3-dihydro-2-oxo-1H-pyrrolo[2,3-b]quinolin-6-yl)oxy]butanoic acid], in experiment [1], the IC50 was 330 nM. As for `CCOC(=O)CCCOc1ccc2nc3c(cc2c1)CC(=O)N3` [Compound 1, ethyl 4-[(2,3-dihydro-2-oxo-1H-pyrrolo[2,3-b]quinolin-6-yl]oxy]butanoate], in experiment [1], the concentration for half-maximal inhibition (IC50) turned out to be 290 nM. On the same count and under the same terms, in the case of `O=C1Cc2cc3cc(OCCCCC(=O)N4CCN(CC5CCCCC5)CC4)ccc3nc2N1` [Compound 6] it was 2.4 nM; in that of `CCOC(=O)CCCCOc1ccc2nc3c(cc2c1)CC(=O)N3` [Compound 2, ethyl 5-[(2,3-dihydro-2-oxo-1H-pyrrolo[2,3-b]quinolin-6-yl]oxy]pentanoate], 62 nM. The molecule `O=C1Cc2cc3cc(OCCCCC(=O)NC4CCN(Cc5ccccc5)CC4)ccc3nc2N1` [Compound 7] gave an IC50 in experiment [1] of 58 nM. In turn, `CN1CCC(N(C)C(=O)CCCOc2ccc3nc4c(cc3c2)CC(=O)N4)CC1` [Compound 8, 4-[(2,3-dihydro-2-oxo-1H-pyrrolo[2,3-b]quinolin-6-yl)oxy]-N-methyl-N-(1-methyl-4-piperidinyl)butanamide] gave an IC50 in experiment [1] of 300 nM. `O=C1Cc2cc3cc(OCCCC(=O)N4CCN(CC5CCCCC5)CC4)ccc3nc2N1` [Compound 5, 1-(cyclohexylmethyl)-4-[4-[(2,3-dihydro-2-oxo-1H-pyrrolo[2,3-b]quinolin-6-yl)oxy]-1-oxobutyl]piperazine] showed a half-inhibitory concentration (IC50) in experiment [1] of 18 nM. Further, the ED15 in the experiment on Beagle dogs (setting [2]) is more than 0.25 mg/kg; with Beagle dogs (setting [3]), 0.079 mg/kg. Further, the ED30 with Beagle dogs (setting [4]) was 0.008 mg/kg; with Beagle dogs (setting [5]) it was 0.033 mg/kg. In the same order, the values of `Cl.O=C1Cc2cc3cc(OCCCCC(=O)N4CCN(CC5CCCCC5)CC4)ccc3nc2N1` [Compound 15, 1-(cyclohexylmethyl)-4-[5-[(2,3-dihydro-2-oxo-1H-pyrrolo[2,3-b]-quinolin-6-yl)oxy]-1-oxopentyl]piperazine monohydrochloride] are 1.8 nM, 0.015 mg/kg, 0.003 mg/kg, 0.002 mg/kg and 0.028 mg/kg. Molecule `CN(C(=O)CCCOc1ccc2nc3c(cc2c1)CC(=O)N3)C1CCCCC1` [Compound 17, N-cyclohexyl-4-[(2,3-dihydro-2-oxo-1H-pyrrolo[2,3-b]quinolin-6-yl)oxy]-N-methylbutanamide hemihydrate] displayed a half-inhibitory concentration (IC50) in experiment [1] of 7.6 nM.
